Columns and labels:
[1] = tested on: mixture of Actinomyces viscosus, Lactobacillus casei, Streptococcus oralis, Fusobacterium nucleatum, and Veillnoella parvula; experiment: Zinc/copper bioavailability assay: bacterial viability by resazurin fluorescence, oral bacterial mixture
Method: (This bacterial mixture simulates the complex flora of the oral environment.) Subsequently, the cells were washed and mixed with 5 μg/ml resazurin solution. The fluorescence of the samples was read at 560 nm excitation and at 590 nm emission, and compared to standardized mixtures of viable and non-viable bacteria in order to determine the percentage of the total bacterial population that remained viable after treatment. Each salt was tested at two different concentrations of zinc. The total amount of zinc was consistent between the different salts.
The amount of soluble zinc in each solution was also determined by centrifuging the solutions to remove insoluble zinc, and by testing the supernatant using ICP-AA (inductively coupled plasma with atomic absorption).

[2] = cited from earlier work
[3] = tested on: mixture of Escherichia coli (45%), Staphylococcus aureus (45%) and Serratia marcescens (10%); experiment: Zinc bioavailability assay: bacterial viability by resazurin fluorescence, skin bacterial mixture; type: cell-based; settings: Table 5; 0.4% ZnO, 0.8% Zn Citrate, or mix, in deionized water; Triclosan positive control
Method: The incubation and detection methods used were as described in Example 1. […] Triclosan was used as a positive antimicrobial control for the experiment.

[4] = Table 6, 0.5% elemental copper in deionized water
[5] = Table 7, 0.05% elemental copper in deionized water

[Cl][Cu][Cl] [CuCl2]
% viable [1, 4]: 1.89% | % viable [1, 5]: 11.99% | theoretical solubility in water [2]: 75.7 g/100 ml

[F][Cu][F] [CuF2]
% viable [1, 5]: 17.82%

[O]=[Cu] [CuO]
% viable [1, 4]: 42.73% | % viable [1, 5]: 78.67%

O=S(=O)([O-])[O-].[Cu+2] [CuSO4]
% viable [1, 4]: 5.82% | % viable [1, 5]: 13.98% | theoretical solubility in water [2]: 20 g/100 ml

Oc1cc(Cl)ccc1Oc1ccc(Cl)cc1Cl [Triclosan, reference compound]
% viable [3]: 18.83%

[O]=[Zn] [ZnO, zinc oxide]
% viable ([1]; Table 2, zinc salt solution without added citrate): 23.75% | % viable [3]: 67.23%

Cu2O
theoretical solubility in water [2]: insoluble
